Measurements published in patent publication US5707798A, “Identification of ligands by selective amplification of cells transfected with receptors” (priority 1994, dated 1998).
Values belong to the molecule of their own block, whether it stands above or below them.

Experiments:
EP3 prostanoid receptor = target: T1, EP3 prostanoid receptor (Homo sapiens, UniProt P43115); assay type: cell-based; details: EP3, Table 2; read-out: Ligand EC50
T1 construct: expressed in transfected cells; host or cells: NIH 3T3 (mouse fibroblasts, ATCC CRL 1658)
T1 sequence (P43115 1-390): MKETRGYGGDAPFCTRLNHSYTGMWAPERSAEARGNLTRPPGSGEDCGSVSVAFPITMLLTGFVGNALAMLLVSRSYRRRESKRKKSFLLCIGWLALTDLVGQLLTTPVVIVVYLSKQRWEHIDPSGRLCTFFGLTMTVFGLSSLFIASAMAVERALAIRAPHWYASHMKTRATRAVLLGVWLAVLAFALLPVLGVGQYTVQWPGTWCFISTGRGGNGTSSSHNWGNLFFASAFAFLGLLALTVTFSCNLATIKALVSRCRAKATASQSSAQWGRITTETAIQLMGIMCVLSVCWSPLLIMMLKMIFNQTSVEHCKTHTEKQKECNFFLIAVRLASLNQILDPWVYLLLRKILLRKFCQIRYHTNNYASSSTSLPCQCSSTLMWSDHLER

[1] = target: T2, alpha 2 C4 adrenergic receptor (Homo sapiens, UniProt P18825); assay type: cell-based; details: α2-C4, Table 3; relative to other ligands at the receptor
T2 construct: expressed in transfected cells; host or cells: NIH 3T3 (mouse fibroblasts)
T2 sequence (P18825 1-462): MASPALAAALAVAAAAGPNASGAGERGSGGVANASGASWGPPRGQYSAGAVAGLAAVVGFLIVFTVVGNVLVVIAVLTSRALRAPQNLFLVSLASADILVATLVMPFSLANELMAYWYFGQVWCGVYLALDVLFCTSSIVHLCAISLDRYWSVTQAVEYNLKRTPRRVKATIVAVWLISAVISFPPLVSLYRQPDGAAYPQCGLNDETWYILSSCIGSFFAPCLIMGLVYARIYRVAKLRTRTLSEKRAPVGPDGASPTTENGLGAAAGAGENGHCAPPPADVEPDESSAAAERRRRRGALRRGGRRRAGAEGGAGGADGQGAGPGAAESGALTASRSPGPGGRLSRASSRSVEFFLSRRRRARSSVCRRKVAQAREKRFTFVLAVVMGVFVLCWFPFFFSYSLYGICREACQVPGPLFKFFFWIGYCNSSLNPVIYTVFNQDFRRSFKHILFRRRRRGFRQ

[2] = system: certain alpha adrenergic receptors; details: cited from earlier work
[3] = system: Muscarinic acetylcholine receptors that stimulate phospholipase c (m1, m3, m5); details: cited from earlier work
m5 muscarinic receptor [4] = target: T3, m5 muscarinic receptor (Homo sapiens, UniProt P08912); assay: Focus induction in NIH 3T3 cells transfected with m5 DNA; assay type: cell-based; details: low concentrations
T3 construct: expressed in transfected cells; host or cells: NIH 3T3 (mouse fibroblasts)
T3 sequence (P08912 1-532): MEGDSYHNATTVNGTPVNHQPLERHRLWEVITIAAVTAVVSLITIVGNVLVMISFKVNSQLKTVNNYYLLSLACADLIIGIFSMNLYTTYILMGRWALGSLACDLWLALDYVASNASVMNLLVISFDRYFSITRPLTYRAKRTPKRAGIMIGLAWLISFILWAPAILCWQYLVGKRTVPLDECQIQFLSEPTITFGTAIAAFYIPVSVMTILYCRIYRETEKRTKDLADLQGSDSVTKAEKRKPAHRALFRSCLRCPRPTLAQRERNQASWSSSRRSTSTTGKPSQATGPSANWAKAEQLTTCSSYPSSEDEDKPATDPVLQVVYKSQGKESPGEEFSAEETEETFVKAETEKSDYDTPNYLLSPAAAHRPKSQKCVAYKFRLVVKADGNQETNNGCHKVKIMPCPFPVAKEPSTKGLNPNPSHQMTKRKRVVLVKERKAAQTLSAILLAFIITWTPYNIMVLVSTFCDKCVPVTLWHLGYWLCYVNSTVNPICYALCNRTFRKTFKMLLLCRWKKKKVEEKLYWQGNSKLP

m5 muscarinic receptor [5] = target: T3, m5 muscarinic receptor; assay type: cell-based
m2 muscarinic receptor [6] = target: T4, m2 muscarinic receptor (Homo sapiens, UniProt P08172); assay: β-galactosidase levels, m2 receptor in the absence of expressed G-protein; assay type: cell-based
T4 construct: expressed in transfected cells; host or cells: NIH 3T3 (mouse fibroblasts)
T4 sequence (P08172 1-466): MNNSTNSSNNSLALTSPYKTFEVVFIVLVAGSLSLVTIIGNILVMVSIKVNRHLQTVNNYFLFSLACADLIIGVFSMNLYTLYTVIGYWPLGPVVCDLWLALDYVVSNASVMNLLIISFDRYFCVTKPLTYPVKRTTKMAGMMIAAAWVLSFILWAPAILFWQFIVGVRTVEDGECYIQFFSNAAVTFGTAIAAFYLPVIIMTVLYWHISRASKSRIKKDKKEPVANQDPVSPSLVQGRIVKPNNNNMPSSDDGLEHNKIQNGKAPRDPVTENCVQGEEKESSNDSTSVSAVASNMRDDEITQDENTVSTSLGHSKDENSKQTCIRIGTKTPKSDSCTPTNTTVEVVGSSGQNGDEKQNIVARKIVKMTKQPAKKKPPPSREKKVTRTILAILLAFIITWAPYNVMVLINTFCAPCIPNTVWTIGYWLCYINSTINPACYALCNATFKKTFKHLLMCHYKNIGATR

m2 muscarinic receptor [7] = target: T4, m2 muscarinic receptor; assay: cell-based; assay type: cell-based
NIH 3T3 cells = assay: Amplification response in the absence of the indicated target receptor; assay type: cell-based, mouse; details: absence of the ligand's target receptor
Description: FIG. 16 illustrates the maximal ligand-induced responses of the indicated receptors, as assayed using cotransfected cultures using a Multiple Receptor Format similar to that described in FIG. 11. […] Cells were incubated in wells of a 96 well plate for 4 days with each ligand. Maximal responses were calculated by fitting the data to a model of a single mass-action site.

m1 muscarinic receptor = target: T5, m1 muscarinic receptor (Homo sapiens, UniProt P11229); assay: cell-based
T5 sequence (P11229 1-460): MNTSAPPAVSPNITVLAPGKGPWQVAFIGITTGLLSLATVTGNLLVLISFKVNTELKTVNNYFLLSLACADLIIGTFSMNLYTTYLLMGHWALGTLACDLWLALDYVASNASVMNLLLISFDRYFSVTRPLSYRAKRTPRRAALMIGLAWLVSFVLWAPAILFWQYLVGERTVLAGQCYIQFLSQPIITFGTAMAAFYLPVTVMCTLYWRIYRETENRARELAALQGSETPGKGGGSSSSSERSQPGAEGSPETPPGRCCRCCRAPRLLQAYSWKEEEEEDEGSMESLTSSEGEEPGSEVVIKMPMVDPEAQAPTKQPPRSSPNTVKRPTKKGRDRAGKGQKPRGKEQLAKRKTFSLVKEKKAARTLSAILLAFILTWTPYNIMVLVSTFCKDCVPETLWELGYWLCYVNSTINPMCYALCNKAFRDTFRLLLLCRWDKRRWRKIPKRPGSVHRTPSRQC

m3 muscarinic receptor = m3 muscarinic receptor (Homo sapiens, UniProt P20309); assay: cell-based
m2 muscarinic receptor [8] = target: T4, m2 muscarinic receptor; assay: cell-based
m4 muscarinic receptor = target: T6, m4 muscarinic receptor (Homo sapiens, UniProt P08173); assay: cell-based
T6 sequence (P08173 1-479): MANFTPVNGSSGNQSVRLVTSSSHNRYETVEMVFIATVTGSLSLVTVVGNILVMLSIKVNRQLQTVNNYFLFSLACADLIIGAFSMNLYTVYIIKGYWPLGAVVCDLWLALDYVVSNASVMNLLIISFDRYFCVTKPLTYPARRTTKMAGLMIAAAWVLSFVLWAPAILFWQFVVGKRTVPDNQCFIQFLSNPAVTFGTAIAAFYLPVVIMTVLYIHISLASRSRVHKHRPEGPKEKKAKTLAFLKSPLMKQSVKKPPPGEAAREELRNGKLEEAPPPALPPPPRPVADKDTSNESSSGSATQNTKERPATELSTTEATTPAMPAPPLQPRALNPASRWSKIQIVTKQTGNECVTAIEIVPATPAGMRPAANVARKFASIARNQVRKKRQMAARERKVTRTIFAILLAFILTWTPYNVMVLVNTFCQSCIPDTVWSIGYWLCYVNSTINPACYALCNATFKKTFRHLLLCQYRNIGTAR

m5 muscarinic receptor [9] = target: T3, m5 muscarinic receptor; assay type: cell-based; remark: listed apart in the source
trk C receptor = target: trk C receptor; parameters: Rmax: key to the marks not given beside the values
trk A receptor = details: Table 2

m3 muscarinic receptor, sequence (P20309 whole entry): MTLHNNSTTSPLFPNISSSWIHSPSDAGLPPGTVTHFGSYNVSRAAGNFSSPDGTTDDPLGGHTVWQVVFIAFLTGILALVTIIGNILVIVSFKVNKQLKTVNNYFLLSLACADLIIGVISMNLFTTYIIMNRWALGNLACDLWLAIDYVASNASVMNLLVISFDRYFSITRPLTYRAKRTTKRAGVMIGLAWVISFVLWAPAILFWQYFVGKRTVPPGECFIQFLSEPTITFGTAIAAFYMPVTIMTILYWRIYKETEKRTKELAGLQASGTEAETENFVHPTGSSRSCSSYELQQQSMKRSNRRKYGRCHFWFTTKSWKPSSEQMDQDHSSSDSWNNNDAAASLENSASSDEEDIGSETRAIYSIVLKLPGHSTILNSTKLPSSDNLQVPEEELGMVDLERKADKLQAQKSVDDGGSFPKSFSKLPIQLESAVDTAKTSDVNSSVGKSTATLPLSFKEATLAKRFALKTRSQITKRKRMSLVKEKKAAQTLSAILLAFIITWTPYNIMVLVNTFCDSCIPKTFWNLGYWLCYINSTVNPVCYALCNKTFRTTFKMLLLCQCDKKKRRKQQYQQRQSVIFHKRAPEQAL

EC50 (EP3 prostanoid receptor): 0.27 ± 0.19 µM
Molecule: O=C(O)CCCCCC[C@H]1C(=O)CC[C@@H]1/C=C/[C@@H](O)COc1ccccc1 [MB28767]

Molecule: NC[C@H](O)c1ccc(O)c(O)c1 [Norepinephrine]
Max Response [1]: +
growth stimulation [2]: stimulates

Molecule: CN1[C@@H]2CC[C@H]1C[C@@H](OC(=O)C(CO)c1ccccc1)C2 (stereo partly shown) [atropine]
block of agonist-stimulated phospholipase c, mitogenesis and foci [3]: blocked

Molecule: C[N+](C)(C)CCOC(N)=O [carbachol]
focus response (m5 muscarinic receptor [4]): robust ligand-dependent responses
time to plateau of β-galactosidase induction (m5 muscarinic receptor [5]; m5): about five
induction of β-galactosidase levels (m5 muscarinic receptor [5]; m5, time-course): significantly induce β-galactosidase levels
effect on β-galactosidase levels (m2 muscarinic receptor [6]): no effect on β-galactosidase levels
time to plateau of β-galactosidase induction (m2 muscarinic receptor [7]; m2/q-i5): about five
induction of β-galactosidase levels (m2 muscarinic receptor [7]; m2/q-i5, time-course): significantly induce β-galactosidase levels
induction of responses (NIH 3T3 cells): unable to induce responses

Molecule: O[Si](CCCN1CCCCC1)(c1ccc(F)cc1)C1CCCCC1 (stereo not shown) [p-F-HHSiD]
Ki (m1 muscarinic receptor): 0.251 µM
Ki (m3 muscarinic receptor): 0.0316 µM
Ki (m2 muscarinic receptor [8]): 0.501 µM
Ki (m4 muscarinic receptor): 0.0501 µM
Ki (m5 muscarinic receptor [9]): 0.0794 µM

Ligand EC50 (trk C receptor; Table 2): 0.0024 ± 0.0011 mg/L
Rmax (trk C receptor; relative to other clones): ++++
Ligand EC50 (trk A receptor): > 1 mg/L
Molecule: NT3: related neutrotrophic factor NT3
